Data: patent US20020137929A1, “1 - (3-heterocyclylphenyl) isothiourea, -isourea, -guanidine and -amidine herbicidal agents” (Intellectual Property Department, BASF Aktiengesellschaft, priority 1998, published 2002)

Assays:
ORYSAT (Rice, Tebonnet) [1] = assay: Rice tolerance to post-transplant applications, flooded paddy conditions (Table III); assay type: in vivo, Oryza sativa, (L.) Tebonnet; conditions: for Herbicidal rating ORYSAT (rice tolerance): post-transplant rice, flooded paddy, rated 3-4 weeks after treatment
Method: (§1) Results of herbicide evaluation are expressed on a rating scale (0-9). The scale is based upon a visual observation of plant stand, vigor, malformation, size, chlorosis and overall plant appearance as compared with a control.
The tolerance of transplanted rice to post-transplanted herbicide applications is determined as follows: two ten-day-old rice seedlings (cv. Tebonnet) are transplanted into silt loam soil in 32 oz. plastic containers with a diameter of 10.5 cm and no drainage holes. After transplanting, the containers are flooded and the water level is maintained at 1.5 to 3 cm above the soil surface. Three days after transplanting, the flooded soil surface of the containers is treated with the selected aqueous/acetone 50/50 v/v mixture containing the test compounds to provide the equivalent of about 0.0313 to 0.500 kg/ha of active ingredient. The treated containers are placed on greenhouse benches, watered such that the water level is maintained as stated above, and cared for in accordance with conventional greenhouse procedures. Three to four weeks after treatment, the test is terminated and each container is examined and herbicidal effect rated according to the rating system provided in Example 37. The compounds evaluated are reported by compound number given in Example 37.
Plant species employed in this example are reported by header abbreviation, common name and scientific name.

ABUTH (Velvetleaf) = assay: Preemergence herbicidal evaluation; assay type: in vivo, Abutilon theophrasti; conditions: rated 4-5 weeks after treatment
Outline: (§2)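 Each species is sown separately in potting soil over roughly an inch of soil before any emergence. The soil surface then receives an aqueous acetone spray delivering about 0.0156 to 0.500 kg/ha of compound. After four to five weeks, injury is scored from 0 to 9 relative to a control.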

[2] = tested on: ECHORC (Watergrass (Calif.)); assay: Preemergence weed control under flooded paddy conditions; assay type: in vivo, Echinochloa oryzoides; conditions: rated 3-4 weeks after treatment
Outline: (§3)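 Herbicidal effect is scored visually on a 0-9 scale against an untreated control, three to four weeks after compounds are pipetted into the flood water (1.5 to 3 cm deep) over seeds planted in silt loam at 0.5 cm depth. Rates: about 0.0313 to 0.500 kg/ha.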

[3] = tested on: TRZAWR (Wheat, Winter, cv Riband); assay: Preemergence herbicidal evaluation; assay type: in vivo, Triticum aestivum; conditions: rated 4-5 weeks after treatment
Outline: as §2

CYPIR (Rice Flatsedge) = assay: Preemergence weed control under flooded paddy conditions; assay type: in vivo, Cyperus iria; conditions: rated 3-4 weeks after treatment
Outline: as §3

ORYSAT (Rice, Tebonnet) [4] = assay: Rice tolerance to post-transplant applications, flooded paddy conditions (Table IV); assay type: in vivo, Oryza sativa, (L.) Tebonnet
Text: as §1
Plastic containers containing weeds which are 3 to 5 cm tall and rice seedlings at the 1.5 to 2.5 leaf stage are flooded with water. The water is maintained at 1.5 to 3 cm above the soil surface for the duration of the experiment. Test compounds are applied as aqueous/ acetone mixtures 50/50 v/v directly into the flood water to provide the equivalent of about 0.0313 to 0.500 kg/ha of active ingredient. The treated containers are placed on greenhouse benches and cared for in accordance with conventional greenhouse procedures. Three to four weeks after treatment, the test is terminated and each container is examined and herbicidal effect rated according to the rating system provided in Example 37. The compounds evaluated are reported by compound number given in Example 37.

[5] = tested on: SAGPY (Arrowhead (Pygmaea)); assay: Preemergence weed control under flooded paddy conditions; assay type: in vivo, Sagittaria pygmaea; conditions: rated 3-4 weeks after treatment
Outline: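 Values are visual 0-9 scores against a control for a preemergence application into paddy flood water at about 0.0313 to 0.500 kg/ha. Greenhouse duration was three to four weeks.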

CCOC(=O)CN1CC(=O)N(CC(=O)OCC)C1=Nc1cc(-n2c(=O)cc(C(F)(F)F)n(C)c2=O)c(F)cc1Cl [Compound 34, 2-{{2-Chloro-5-[3,6-dihydro-3-methyl-2,6-dioxo-4-(trifluoromethyl)-1(2H)-pyrimidinyl]-4-fluoro-phenyl}imino}-4-oxo-1,3-imidazolidinediacetic acid, diethyl ester]
0.0: Preemergence herbicidal rating TRZAWR ([3]; rate 0.0313 kg/ha) | Preemergence herbicidal rating TRZAWR ([3]; rate 0.0625 kg/ha) | Herbicidal rating CYPIR (CYPIR (Rice Flatsedge); 0.0313 kg/ha) | Herbicidal rating CYPIR (CYPIR (Rice Flatsedge); 0.0625 kg/ha) | Herbicidal rating CYPIR (CYPIR (Rice Flatsedge); 0.1250 kg/ha) | Herbicidal rating CYPIR (CYPIR (Rice Flatsedge); 0.2500 kg/ha) | Herbicidal rating SAGPY ([5]; 0.0313 kg/ha) | Herbicidal rating SAGPY ([5]; 0.0625 kg/ha) | Herbicidal rating SAGPY ([5]; 0.1250 kg/ha) | Herbicidal rating SAGPY ([5]; 0.2500 kg/ha)
6.0: Herbicidal rating ORYSAT (rice tolerance) (ORYSAT (Rice, Tebonnet) [1]; 0.2500 kg/ha) | Herbicidal rating ORYSAT (rice tolerance) (ORYSAT (Rice, Tebonnet) [4]; rate 0.2500 kg/ha, flooded paddy, post-transplant rice, 3-4 weeks after treatment)
4.0: Herbicidal rating ORYSAT (rice tolerance) (ORYSAT (Rice, Tebonnet) [1]; 0.1250 kg/ha) | Herbicidal rating ECHORC ([2]; 0.0625 kg/ha) | Herbicidal rating ECHORC ([2]; 0.1250 kg/ha) | Herbicidal rating ORYSAT (rice tolerance) (ORYSAT (Rice, Tebonnet) [4]; rate 0.1250 kg/ha, flooded paddy, post-transplant rice, 3-4 weeks after treatment)
9.0: Preemergence herbicidal rating ABUTH (ABUTH (Velvetleaf); rate 0.0313 kg/ha) | Preemergence herbicidal rating ABUTH (ABUTH (Velvetleaf); rate 0.0625 kg/ha) | Preemergence herbicidal rating ABUTH (ABUTH (Velvetleaf); rate 0.1250 kg/ha) | Preemergence herbicidal rating ABUTH (ABUTH (Velvetleaf); rate 0.2500 kg/ha) | Herbicidal rating ECHORC ([2]; 0.2500 kg/ha)
5.0: Preemergence herbicidal rating TRZAWR ([3]; rate 0.2500 kg/ha)
3.0: Herbicidal rating ORYSAT (rice tolerance) (ORYSAT (Rice, Tebonnet) [1]; 0.0313 kg/ha) | Herbicidal rating ORYSAT (rice tolerance) (ORYSAT (Rice, Tebonnet) [1]; 0.0625 kg/ha) | Herbicidal rating ECHORC ([2]; 0.0313 kg/ha) | Herbicidal rating ORYSAT (rice tolerance) (ORYSAT (Rice, Tebonnet) [4]; rate 0.0313 kg/ha, flooded paddy, post-transplant rice, 3-4 weeks after treatment) | Herbicidal rating ORYSAT (rice tolerance) (ORYSAT (Rice, Tebonnet) [4]; rate 0.0625 kg/ha, flooded paddy, post-transplant rice, 3-4 weeks after treatment)
1.0: Preemergence herbicidal rating TRZAWR ([3]; rate 0.1250 kg/ha)

CC(C)C[C@@H](C(=O)O)N1C(=O)CSC1=Nc1cc(-n2c(=O)cc(C(F)(F)F)n(C)c2=O)c(F)cc1Cl [Compound 71, α-Isobutyl-2-{{2-chloro-5-[3,6-dihydro-3-methyl-2,6-dioxo-4-(trifluoromethyl)-1(2H)-pyrimidinyl]-4-fluorophenyl}imino}-4-oxo-3-thiazolidineacetic acid, L-]
4.0: ORYSAT herbicidal effect rating (rice tolerance) (ORYSAT (Rice, Tebonnet) [1]; in vivo) | Herbicidal rating ORYSAT (rice tolerance) (ORYSAT (Rice, Tebonnet) [4]; in vivo)
3.0: Preemergence herbicidal rating TRZAWR ([3]; rate 0.2500 kg/ha) | CYPIR herbicidal effect rating (CYPIR (Rice Flatsedge); 0.1250 kg/ha)
1.0: Preemergence herbicidal rating ABUTH (ABUTH (Velvetleaf); rate 0.0156 kg/ha) | Preemergence herbicidal rating TRZAWR ([3]; rate 0.1250 kg/ha)
7.0: ECHORC herbicidal effect rating ([2]; 0.2500 kg/ha) | CYPIR herbicidal effect rating (CYPIR (Rice Flatsedge); 0.2500 kg/ha)
9.0: Preemergence herbicidal rating ABUTH (ABUTH (Velvetleaf); rate 0.0313 kg/ha) | Preemergence herbicidal rating ABUTH (ABUTH (Velvetleaf); rate 0.0625 kg/ha) | Preemergence herbicidal rating ABUTH (ABUTH (Velvetleaf); rate 0.1250 kg/ha) | Preemergence herbicidal rating ABUTH (ABUTH (Velvetleaf); rate 0.2500 kg/ha)
0.0: ECHORC herbicidal effect rating ([2]; 0.1250 kg/ha) | Preemergence herbicidal rating TRZAWR ([3]; rate 0.0156 kg/ha) | Preemergence herbicidal rating TRZAWR ([3]; rate 0.0313 kg/ha) | Preemergence herbicidal rating TRZAWR ([3]; rate 0.0625 kg/ha) | SAGPY herbicidal effect rating ([5]; 0.1250 kg/ha) | SAGPY herbicidal effect rating ([5]; 0.2500 kg/ha)

CCOC(=O)CN1C(=O)C(C(=O)OC(C)(C)C)SC1=Nc1cc(-n2c(=O)cc(C(F)(F)F)n(C)c2=O)c(F)cc1Cl (stereo not shown) [Compound 167, 5-Carboxy-2-{{2-chloro-5-[3,6-dihydro-3-methyl-2,6-dioxo-4-(trifluoromethyl)-1(2H)-pyrimidinyl]-4-fluorophenyl}imino}-4-oxo-3-thiazolidineacetic acid, 5-tert-butyl ethyl ester]
3.0: Preemergence herbicidal rating TRZAWR ([3]; 0.1250 kg/ha)
6.0: herbicidal effect rating, SAGPY ([5]; 0.1250 kg/ha)
9.0: Preemergence herbicidal rating ABUTH (ABUTH (Velvetleaf); 0.0625 kg/ha) | Preemergence herbicidal rating ABUTH (ABUTH (Velvetleaf); 0.1250 kg/ha) | Preemergence herbicidal rating ABUTH (ABUTH (Velvetleaf); 0.2500 kg/ha) | Preemergence herbicidal rating ABUTH (ABUTH (Velvetleaf); 0.5000 kg/ha) | herbicidal effect rating, ECHORC ([2]; 0.0313 kg/ha) | herbicidal effect rating, ECHORC ([2]; 0.0625 kg/ha) | herbicidal effect rating, ECHORC ([2]; 0.1250 kg/ha) | herbicidal effect rating, ECHORC ([2]; 0.2500 kg/ha) | herbicidal effect rating, CYPIR (CYPIR (Rice Flatsedge); 0.0625 kg/ha) | herbicidal effect rating, CYPIR (CYPIR (Rice Flatsedge); 0.1250 kg/ha) | herbicidal effect rating, CYPIR (CYPIR (Rice Flatsedge); 0.2500 kg/ha)
4.0: herbicidal effect rating, ORYSAT (rice tolerance) (ORYSAT (Rice, Tebonnet) [1]; in vivo) | Preemergence herbicidal rating TRZAWR ([3]; 0.2500 kg/ha) | herbicidal effect rating, SAGPY ([5]; 0.0313 kg/ha)
5.0: Preemergence herbicidal rating TRZAWR ([3]; 0.5000 kg/ha) | herbicidal effect rating, SAGPY ([5]; 0.0625 kg/ha)
0.0: Preemergence herbicidal rating ABUTH (ABUTH (Velvetleaf); 0.0313 kg/ha) | Preemergence herbicidal rating TRZAWR ([3]; 0.0156 kg/ha) | Preemergence herbicidal rating TRZAWR ([3]; 0.0313 kg/ha)
7.0: herbicidal effect rating, CYPIR (CYPIR (Rice Flatsedge); 0.0313 kg/ha) | herbicidal effect rating, SAGPY ([5]; 0.2500 kg/ha)
1.0: Preemergence herbicidal rating TRZAWR ([3]; 0.0625 kg/ha)
